Reference: patent US5051419A, “Prevention or elimination of mycoplasma contamination of animal or plant cell cultures” (Dainippon Pharmaceutical Co., Ltd., priority 1988, dated 1991)
Values after ≈ are worked out from the molar mass of the structure shown.

Experiments:
M. pnumoniae Mac = experiment: Anti-mycoplasmal activity (MIC), agar-dilution method; format: cell-based, Mycoplasma pneumoniae; conditions: Mycoplasma; agar dilution; M. pnumoniae Mac; read-out: MIC
Description: (§1) The minimum growth inhibitory concentrations (MIC; μg/ml) of the test chemicals were measured by the agar-dilution method.
(§2) (1) Preparation of a mycoplasma suspension for inoculation
(§3) A stored frozen suspension of mycoplasma (0.2 to 0.3 ml) was inoculated in 2 to 3 ml of a preculture medium to be described later. It was serially diluted tenfold until the dilution ratio reached 10,000 times. These diluted solutions were cultivated at 37° C. for 2 to 7 days. A culture having the highest dilution ratio was selected from those cultures in which a color change of the media was noted as a result of mycoplasma growth. It was diluted to 100 times with the preculture medium to prepare a mycoplasma suspension for inoculation.
(§4) The following preculture media were used.
For Mycoplasma pneumoniae and Acholeplasma laidlawii, Chanock liquid medium containing 0.5% glucose (pH 7.8) [Library of Bacteriology 2, "Procedures for Isolation and Identification of Human, Animal and Plant Mycoplasmas", edited by Japanese Society for Bacteriology, page 8 (1982), Saikon Publishing Co.] was used.
(§5) (2) Preparation of agar plates containing the test chemicals
(§6) A 1,000 μg/ml aqueous solution of each test chemical was prepared (a difficultly-soluble chemical was dissolved by adding an equimolar amount of sodium hydroxide; the same applies hereinafter). The solution was used as a base solution and its twofold serial dilutions were prepared. The diluted solutions were pipetted on plastic petri dishes each in an amount of 1 ml. The Chanock agar medium (for Mycoplasma hyorhinis, 0.5% mucin was further added) described at page 9 of the above cited "Procedures for Isolation and Identification of Human, Animal and Plant Mycoplasmas" was heated and kept at 55° C. and put in an amount of 9 ml in each of the petri dishes containing the test chemicals and fully mixed with the test chemicals to prepare agar plates containing the test chemicals.
(§7) The mycoplasma suspension for inoculation prepared by the procedure described in section (1) was inoculated in an amount of about 3 microliters on each of the chemical-containing agar plates by means of a Cathra-replicator (3 mm pin). The plates on which Mycoplasma pneumoniae, Mycoplasma arginini, and Acholeplasma laidlawii and Mycoplasma hyorhinis were inoculated were tightly packed in a plastic bag together with the plasic petri dishes including water-immersed absorbent cotton. Mycoplasma pneumoniae was aerobically cultivated at 37° C. under highly humid conditions for 7 days; and Mycoplasma arginini and Acholeplasma laidlawii, for 2 days. The other mycoplasma species were cultivated anaerobically for 2 days by using a GasPak anaerobic system (BBL). After the cultivation, growth of mycoplasma were observed under an OLYMPUS microscope (20-100 X). The lowest concentration of the test chemical at which no growth of mycoplasma was noted is defined as MIC.

M. arginini G230 = experiment: as above; format: cell-based, Mycoplasma arginini; conditions: Mycoplasmopsis arginini; agar dilution; M. arginini G230; read-out: MIC
Description: as §1, §2, §3, §4
For other mycoplasma species, Chanock liquid medium (pH 6.8) containing 0.2% arginine was used.
as §5, §6, §7

M. hyorhinis BST7 = experiment: as above; format: cell-based, Mycoplasma hyorhinis; conditions: Mesomycoplasma hyorhinis; agar dilution; M. hyorhinis BST7; read-out: MIC
Description: as §1, §2, §3, §4
For Mycoplasma hyorhinis, a liquid medium (pH 7.8) for isolation of Mycoplasma hyorhinis [Journal of the Japan Veterinary Medical Association,32, 34-38 (1979)] was used.
as §5, §6, §7

M. arginini G-230 = experiment: Anti-mycoplasmal activity (MIC, MMC), liquid dilution method; format: cell-based, Mycoplasma arginini; conditions: Mycoplasmopsis arginini, liquid dilution, M. arginini G-230; for MBC: G230, 120 h, read-out: MMC; for MIC: G230, read-out: MIC
Description: The minimum growth inhibitory concentration (MIC, μg/ml) and minimum mycoplasmacidal concentration (MMC, μg/ml) of test chemicals were measured by the liquid dilution method. The method of measuring MIC in this example differs from that used in Test Example 1.
A 1,000 μg/ml aqueous solution of a test chemical was prepared, and diluted to 5 times with a preculture medium. The dilution (200 μg/ml) was serially diluted twofold with the same medium in a 8-well reservoir. Fifty microliters of each diluted solution was distributed in the wells of a microplate. A well to which no test chemical was added was used as a control.
A mycoplasma suspension for inoculation prepared as in Test Example 1 was pipetted in an amount of 50 microliters to each of the wells. The microplates were sealed by a plate seal, shaken by a micromixer, and cultivated at 37° C. for 5 days. In the control to which no test chemical was added, color change of the medium by the growth of mycoplasma was observed after two days from the start of the cultivation. At this time, 3 microliters of the liquid culture was inoculated in drug-free Chanock agar medium by using a Cathra-replicator. The liquid culture and the agar medium were further cultivated at 37° C. for 3 days (anaerobically in the case of M. orale, and aerobically in the case of A. laidlawii and M. arginini). MIC and MMC were determined from the results of observation on the 5th day. MIC was defined as the lowest concentration of the test chemical at which growth of mycoplasma in the drug-containing liquid medium was not noted, and MMC, as that in the drug-free agar medium.

SMILES: CC1CN(c2c(F)c(N)c3c(=O)c(C(=O)O)cn(C4CC4)c3c2F)CCN1 (stereo not drawn) [Compound 1]
- MIC (M. pnumoniae Mac): 0.025 µg/mL (≈ 0.0661 µM)
- MIC (M. arginini G230): 0.1 µg/mL (≈ 0.264 µM)
- MIC (M. hyorhinis BST7): 0.2 µg/mL (≈ 0.529 µM)
- MBC (M. arginini G-230): 0.1 µg/mL (≈ 0.264 µM)
- MIC (M. arginini G-230): 0.1 µg/mL (≈ 0.264 µM)

SMILES: CN(C)c1ccc(O)c2c1C[C@H]1C[C@H]3[C@H](N(C)C)C(O)=C(C(N)=O)C(=O)[C@@]3(O)C(O)=C1C2=O [Compound 3, minocycline]
- MIC (M. pnumoniae Mac): 0.78 µg/mL (≈ 1.7 µM)
- MIC (M. arginini G230): 0.39 µg/mL (≈ 0.852 µM)
- MIC (M. hyorhinis BST7): 0.1 µg/mL (≈ 0.219 µM)
- MBC (M. arginini G-230): > 100 µg/mL
- MIC (M. arginini G-230): 0.39 µg/mL (≈ 0.852 µM)

SMILES: NCC1CN(c2c(F)c(N)c3c(=O)c(C(=O)O)cn(C4CC4)c3c2F)CCO1 (stereo not drawn) [Compound A, 5-amino-7-(2-aminomethylmorpholino)-1-cyclopropyl-6,8-difluoro-1,4-dihydro-4-oxoquinoline-3-carboxylic acid]
- MIC (M. pnumoniae Mac): 0.0125 µg/mL (≈ 0.0317 µM)
- MIC (M. arginini G230): 0.05 µg/mL (≈ 0.127 µM)
- MIC (M. hyorhinis BST7): 0.05 µg/mL (≈ 0.127 µM)
- MBC (M. arginini G-230): 0.05 µg/mL (≈ 0.127 µM)
- MIC (M. arginini G-230): 0.05 µg/mL (≈ 0.127 µM)
